Measurements reported in US20130210846A1, “USE OF NOVEL PAN-CDK INHIBITORS FOR TREATING TUMORS” (BAYER INTELLECTUAL PROPERTY GMBH, priority 2010, published 2013).

Experiments:
HeLa-MaTu = test: Proliferation assay HeLa-MaTu; format: cell-based, human; conditions: Homo sapiens, 96 h, cervix carcinoma, 4 days, crystal violet
Procedure, shortened: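 Human tumour cells plated 1000 to 5000 cells/well, treated after 24 h with compound (0.01-30 μM, 0.5% DMSO) for 4 days. Growth by crystal violet staining read at 595 nm, normalised to zero-point plate and untreated cells; IC50 from 4-parameter fit.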

[1] = test system: HeLa-MaTu human cervix carcinoma cells; test: HeLa-MaTu human cervix carcinoma xenograft model; format: in vivo, female NMRI nude mice
Excerpt: (§1) Tumor cells grown in cell culture were implanted subcutaneously in the flank of female or male NMRI nude mice. The treatment was started as soon as the tumors had grown to a size of approx. 20 mm^2 The study was ended as soon as the tumors in one of the groups reached a size of approx. 150 mm^2.
(§2) Vehicle group: treatment with solubilizer (40% PEG400/60% water)
(§3) The studies were designed for determining the initial response of the human tumor model to the treatment with the Exemplary compound 2-SI-2. Tumor growth inhibition in percent (TGI) was either calculated at the end of the studies from the tumor weights (TGITW) using the formula 100×[1−(tumor weight of the treatment group/tumor weight of the vehicle group)], or on the day the vehicle group had to be ended from the tumor areas (TGITA) using the formula 100×[1−(tumor area of the treatment group on the day of the measurement−tumor area of the treatment group prior to treatment)/(tumor area of the vehicle group on the day of the measurement−tumor area of the vehicle group prior to treatment)]. In the case of a tumor growth inhibition of more than 50%, the treatment was considered to have been effective.
Efficacy in the HeLa-MaTu human cervix carcinoma xenograft model
HeLa-MaTu human cervix carcinoma cells implanted into female NMRI nude mice
• a) 0.05 mg/ml, 0.10 mg/ml, 0.15 mg/ml, 0.2 mg/ml of Example 2-SI-2 in 40% (v/v) PEG 400 in water • b) 0.15 mg/ml, 0.2 mg/ml, 0.25 mg/ml of Example 2-SI-2 in 40% (v/v) PEG 400 in water
• a) 0.5 to 2.0 mg/kg (1.5 to 6.0 mg/m^2) 1× per day b) 1.5 to 2.5 mg/kg (4.5 to 7.5 mg/m^2) 2× per day on 2 successive days, followed by 5 treatment-free days

[2] = test system: HCT116 human colorectal tumor cells; test: HCT116 human colorectal xenograft model; format: in vivo, female NMRI nude mice
Excerpt: as §1, §2, §3
Efficacy in the HCT116 human colorectal xenograft model.
HCT116 human colorectal tumor cells implanted into female NMRI nude mice.
• a) 0.15 mg/ml, 0.20 mg/ml of Example 2-SI-2 in 40% (v/v) PEG 400 in water • b) 0.20 mg/ml, 0.25 mg/ml of Example 2-SI-2 in 40% (v/v) PEG 400 in water • c) 0.40 mg/ml, 0.50 mg/ml, 0.60 mg/ml of Example 2-SI-2 in 40% (v/v) PEG 400 in water
• a) 1.5 and 2.0 mg/kg (4.5 and 6.0 mg/m^2), 1× per day. • b) 2.0 and 2.5 mg/kg (6.0 and 7.5 mg/m^2), 2× per day on 2 successive days, followed by 5 treatment-free days. • c) 4.0 to 6.0 mg/kg (12 to 18 mg/m^2), 1× per day on 2 successive days, followed by 5 treatment-free days.

[3] = test system: NCI-H69 human small-cell lung tumor cells; test: NCI-H69 human small-cell lung tumor model; format: in vivo, female NMRI nude mice
Excerpt: as §1, §2, §3
Efficacy in the NCI-H69 human small-cell lung tumor model.
NCI-H69 human small-cell lung tumor cells implanted into female NMRI nude mice. […]

A2780-Cis = test: Proliferation assay A2780-Cis; format: cell-based; conditions: Homo sapiens, A2780cis, 96 h, ovarial carcinoma, 4 days, crystal violet
Experimental: (§4) Cultivated human tumor cells (originally obtained from ATCC, HeLa-MaTu and HeLa-MaTu-ADR, originally obtained from Epo GmbH, Berlin, Germany) were plated at a density of 1000 to 5000 cells/measuring point, depending on the growth rate of the cell line, in a 96-well multititer plate in 200 μl of growth medium (DMEM/HAMS F12, 2 mM L-glutamine, 10% fetal calf serum). After 24 hours the cells of one plate (zero-point plate) were stained with crystal violet (see below), whereas the medium of the other plates was replaced with fresh culture medium (200 μl), to which the test substances had been added at various concentrations (0 μM, and in the range 0.01-30 μM; the final concentration of the solvent dimethyl sulfoxide was 0.5%). The cells were incubated for 4 days in the presence of the test substances. Cellular proliferation was determined by staining the cells with crystal violet: the cells were fixed by adding 20 μl/measuring point of an 11% glutaraldehyde solution for 15 min at room temperature. […] The extinction was determined photometrically at a wavelength of 595 nm. The percentage change in cell growth was calculated by standardization of the measured values to the extinction values of the zero-point plate (=0%) and the extinction of the untreated (0 μM) cells (=100%). […] The IC50 values were determined by means of a 4-parameter fit using the company's own software. […]

NCI-H69 = test: Proliferation assay NCI-H69; format: cell-based; conditions: Homo sapiens, 96 h; NCI-H69, small-cell bronchial carcinoma; 4 days, crystal violet
Experimental: as §4

[4] = HeLa-MaTu; b) 2.5 mg/kg oral 2× per day on 2 successive days, followed by 5 treatment-free days
[5] = HCT116; b) 2.5 mg/kg oral 2× per day on 2 successive days, followed by 5 treatment-free days

C[C@@H](O)[C@@H](C)Nc1nc(Nc2ccc(S(=N)(=O)C3CC3)cc2)ncc1C(F)(F)F (mixture of isomers) [Example 4-SI-1, (RS)—S-Cyclopropyl-S-(4-{[4-{[(1R,2R)-2-hydroxy-1-methylpropyl]amino}-5-(trifluoromethyl)-pyrimidin-2-yl]amino}phenyl)sulfoximide]
IC50 (HeLa-MaTu): 10 nM

C[C@@H](O)[C@@H](C)Oc1nc(Nc2ccc(S(C)(=N)=O)cc2)ncc1C(F)(F)F (mixture of isomers) [Example 2-SI-2, (RS)—S-(4-{[4-{[(1R,2R)-2-Hydroxy-1-methylpropyl]oxy}-5-(trifluoromethyl)pyrimidin-2-yl]-amino}phenyl)-S-methylsulfoximide]
TGITW (tumor growth inhibition from tumor weights) ([1]; HeLa-MaTu; a) 2.0 mg/kg oral 1× per day): 97% | TGITW (tumor growth inhibition from tumor weights) [1, 4]: 98% | tumor regression observation [1, 4]: signs of tumor regression | TGITW (tumor growth inhibition from tumor weights) ([2]; HCT116; a) 2.0 mg/kg oral 1× per day): 67% | TGITW (tumor growth inhibition from tumor weights) [2, 5]: 57% | tumor regression observation [2, 5]: signs of tumor regression | TGITW (tumor growth inhibition from tumor weights) ([2]; HCT116; c) 5.0 mg/kg oral 1× per day on 2 successive days, followed by 5 treatment-free days): 83% | TGITA (tumor growth inhibition from tumor areas, measured on the day the vehicle group was ended) ([3]; NCI-H69; a) 2.0 mg/kg oral 1× per day): 99% | TGITA (tumor growth inhibition from tumor areas) ([3]; NCI-H69; b) 2.5 mg/kg oral 2× per day on 2 successive days, followed by 5 treatment-free days): 110%

C[C@@H](O)[C@@H](C)Oc1nc(Nc2ccc(S(C)(=N)=O)cc2)ncc1C(F)(F)F (single isomer, unassigned) [Example 2-SI-2]
IC50 (A2780-Cis): 10 nM | IC50 (NCI-H69): 37 nM
